Data from patent publication US6197225A, “Chromene compound” (Tokuyama Corporation, priority 1997, dated 2001).

assay: Photochromic properties of cast polymer (2 mm thick) under xenon lamp irradiation for 120 seconds; format: physicochemical; conditions: single chromene compound 0.04% by weight in polymer, 20° C.; Table 5
Experimental: 0.04% by weight of the chromene compound obtained in Example 1 was added to 70 parts of 4G, 15 parts of 3G, 10 parts of GMA, 5 parts of HEMA and 1 part of perbutyl ND, and was mixed together to a sufficient degree. The mixture solution was poured into a mold constituted by a glass plate and a gasket of an ethylene/vinyl acetate copolymer, and was cast-polymerized. By using an air furnace, the polymerization was conducted in a manner that the temperature was gradually raised from 30° C. to 90° C. over a period of 18 hours, and was held at 90° C. for 2 hours. After the polymerization, the polymer was taken out from the glass mold.
By using a xenon lamp, L-2480 (300 W) SHL-100, manufactured by Hamamatsu Photonics Co., the obtained polymer (2 mm thick) was irradiated with a beam of an intensity of 365 nm=2.4 mW/cm^2 and 245 nm=24 μW/cm^2 on the surface of the polymer for 120 seconds through an aero-mass filter (manufactured by Corning Co.) at 20° C.±1° C. to develop color and to measure the photochromic properties which were expressed in the following manner.
1 Maximum absorption wavelength (λmax): λmax of the polymer after it has developed color was found by using a spectrophotometer (instantaneous multi-channel photo-detector, MCPD1000) manufactured by Otsuka Denshi Kogyo Co.
2 Initial color ( ε(0)): Absorbency of the polymer in a non-irradiated state at a wavelength same as the maximum absorption wavelength of when it is irradiated with light.
3 Color density (-)=ε(120)-ε(0). ε(120): Absorbency of the polymer at a maximum absorption wavelength after it was irradiated for 120 seconds under the above-mentioned conditions.
4 Color-developing sensitivity (-/min.)=Saturated color density/xenon irradiation time.
Rate of increase in the color density per a unit time until the color density is saturated.
5 Color fading rate [t1/2 (min.)]=time required until the absorbency of the polymer drops down to one-half of [ε(120)-ε(0)] after irradiated for 120 seconds.
(§1) Photochromic polymers were prepared in the same manner as in Example 42 but using the chromene compounds obtained in Examples 2 to 41, and their maximum absorption wavelengths, color densities, fading rates, changes in the coloring degrees and durabilitys were measured.
(§2) For the purpose of comparison, furthermore, the compounds represented by the following formulas (a), (b), (c), (d), (e) and (f) were measured for their maximum absorption wavelengths, color densities, fading rates, changes in the coloring degrees and durabilitys.
(§3) The procedure was carried out in the same manner as in Example 42 but using 100 parts of AC1 and 133 parts of BC1, the sum of the amounts of AC1 and BC1 being 0.04% by weight. The obtained photochromic polymer was measured for its maximum absorption wavelength, initial color, color density, color-developing sensitivity, fading rate, durability and change in the coloring degree.
(§4) The procedure was carried out in the same manner as in Example 83 but using the known chromene compounds shown in Table 6 instead of the chromene compound used in Example 83. […]

Row | Maximum absorption wavelength λmax | Structure (SMILES) | Fading rate t1/2
1 | 462 nm | CC(C)(C)c1cc2ccccc2c2c1C=CC(c1ccccc1)(c1ccccc1)O2 [Compound 1] | 3.6 min
2 | 488 nm | CCC(C)(C)c1cc2ccccc2c2c1C=CC(c1ccc(OC)cc1)(c1ccco1)O2 (stereo not shown) [Compound 3] | 3.1 min
3 | 470 nm | CCC(C)c1cc2ccccc2c2c1C=CC(c1ccc(OC)cc1)(c1ccc(OC)c(C#N)c1)O2 (stereo not shown) [Compound 4] | 2.4 min
4 | 465 nm | CCC(C)(CC)c1cc2ccccc2c2c1C=CC(c1ccc(OC)c(F)c1)(c1ccc(OC)c(F)c1)O2 [Compound 5] | 2.2 min
5 | 485 nm | CC(C)(C)c1cc2ccccc2c2c1C=CC(c1ccccc1)(c1cc3ccccc3s1)O2 (stereo not shown) [Compound 11] | 3.4 min
6 | 500 nm | COc1ccc(C2(c3ccc(OC)cc3)C=Cc3c(C(C)C)cc4ccccc4c3O2)cc1 [Compound 13] | 3.3 min
7 | 492 nm | COc1ccc(C2(c3ccc(OC)c(F)c3)C=Cc3c(C(C)C)cc4ccccc4c3O2)cc1F [Compound 14] | 4.3 min

Further lines, the compound ahead of its results:

Row | Structure (SMILES) | Maximum absorption wavelength λmax | Fading rate t1/2
8 | CC(C)(C)c1cc2ccccc2c2c1C=CC1(O2)C2CCCC1CCC2 (stereo not shown) [Compound 2] | 443 nm | 1.2 min
9 | CC(C)(C)c1cc2ccccc2c2c1C=CC(c1ccccc1)(c1cccs1)O2 (stereo not shown) [Compound 6] | 480 nm | 2.8 min
10 | CC(C)c1cc2ccccc2c2c1C=CC(c1ccccc1)(c1ccc3ccccc3c1)O2 (stereo not shown) [Compound 7] | 468 nm | 3.5 min
11 | COc1ccc2c3c(c(C(C)Cc4ccccc4)cc2c1)C=CC(c1ccccc1)(c1cccn1C)O3 (stereo not shown) [Compound 8] | 490 nm | 2.2 min
12 | CC(C)c1cc2cc(O)ccc2c2c1C=CC(c1cccs1)(c1cccs1)O2 [Compound 9] | 500 nm | 2.2 min
13 | CC(=O)Oc1ccc2c3c(c(C(C)C)cc2c1)C=CC(c1ccc(C)cc1)(c1ccc(C)cc1)O3 [Compound 10] | 465 nm | 3.2 min
14 | CC(C)c1cc2ccccc2c2c1C=CC(c1ccccc1)(c1ccccc1)O2 [Compound 12] | 476 nm | 6.8 min

same assay, conditions: single chromene compound 0.04% by weight in polymer, 120 seconds, 20° C.; Table 5

Row | Color density ε(120)-ε(0) | Structure (SMILES)
15 | 0.7 | CC(C)(C)c1cc2ccccc2c2c1C=CC(c1ccccc1)(c1ccccc1)O2 [Compound 1]
16 | 1.1 | CCC(C)(C)c1cc2ccccc2c2c1C=CC(c1ccc(OC)cc1)(c1ccco1)O2 (stereo not shown) [Compound 3]
17 | 0.7 | CCC(C)c1cc2ccccc2c2c1C=CC(c1ccc(OC)cc1)(c1ccc(OC)c(C#N)c1)O2 (stereo not shown) [Compound 4]
18 | 0.6 | CCC(C)(CC)c1cc2ccccc2c2c1C=CC(c1ccc(OC)c(F)c1)(c1ccc(OC)c(F)c1)O2 [Compound 5]
19 | 1.0 | CC(C)(C)c1cc2ccccc2c2c1C=CC(c1ccccc1)(c1cc3ccccc3s1)O2 (stereo not shown) [Compound 11]
20 | 0.8 | COc1ccc(C2(c3ccc(OC)cc3)C=Cc3c(C(C)C)cc4ccccc4c3O2)cc1 [Compound 13]
21 | 0.8 | COc1ccc(C2(c3ccc(OC)c(F)c3)C=Cc3c(C(C)C)cc4ccccc4c3O2)cc1F [Compound 14]

The remaining lines, values behind:

Row | Structure (SMILES) | Color density ε(120)-ε(0)
22 | CC(C)(C)c1cc2ccccc2c2c1C=CC1(O2)C2CCCC1CCC2 (stereo not shown) [Compound 2] | 0.5
23 | CC(C)(C)c1cc2ccccc2c2c1C=CC(c1ccccc1)(c1cccs1)O2 (stereo not shown) [Compound 6] | 0.8
24 | CC(C)c1cc2ccccc2c2c1C=CC(c1ccccc1)(c1ccc3ccccc3c1)O2 (stereo not shown) [Compound 7] | 0.8
25 | COc1ccc2c3c(c(C(C)Cc4ccccc4)cc2c1)C=CC(c1ccccc1)(c1cccn1C)O3 (stereo not shown) [Compound 8] | 0.7
26 | CC(C)c1cc2cc(O)ccc2c2c1C=CC(c1cccs1)(c1cccs1)O2 [Compound 9] | 0.6
27 | CC(=O)Oc1ccc2c3c(c(C(C)C)cc2c1)C=CC(c1ccc(C)cc1)(c1ccc(C)cc1)O3 [Compound 10] | 0.6
28 | CC(C)c1cc2ccccc2c2c1C=CC(c1ccccc1)(c1ccccc1)O2 [Compound 12] | 0.9

assay: Aging promotion testing: sunlight 30 min / fading one hour cycles, 10 days (durability, coloring degree); format: physicochemical; conditions: YI(10)-YI(0), single chromene compound in polymer, 10 days aging; Table 5
Experimental: In order to promote the aging, furthermore, the following testing was conducted. That is, the obtained photochromic polymer was irradiated with sunlight for 30 minutes to develop color, and its color was permitted to fade for one hour in the light of a fluorescent lamp. This cycle was repeated three times a day for a total of 10 days.
The photochromic properties before and after aged were evaluated by evaluating the color densities before and after aged. The initial color density (T0) and the color density (T30) ten days after the aging promotion testing were measured, and the durability was expressed as described below.
Furthermore, the coloring degrees of before developing color were measured before and after aged by using a color difference meter (SM-4) manufactured by Suga Shikenki Co.
7 Coloring degree before being aged=YI(0).
8 Change in the coloring degree (ΔYI)=YI(10)-YI(0)
YI(10): coloring degree after aged
as §1, §2, §3, §4
The obtained polymer (2 mm thick) was caused to develop color outdoors, and tones of the developed color were observed by eyes 30 seconds and 15 minutes after it was brought to the outdoors, and uniformity in the step of developing color was evaluated. […] Furthermore, the aging promoting testing was conducted in the same manner as in Example 42 to find a coloring degree (YI(0)) before aged and a change in the coloring degree (ΔY).

Row | Change in the coloring degree ΔYI | Structure (SMILES)
29 | 0.2 | CC(C)(C)c1cc2ccccc2c2c1C=CC(c1ccccc1)(c1ccccc1)O2 [Compound 1]
30 | 2.0 | CCC(C)(C)c1cc2ccccc2c2c1C=CC(c1ccc(OC)cc1)(c1ccco1)O2 (stereo not shown) [Compound 3]
31 | 5.0 | CCC(C)c1cc2ccccc2c2c1C=CC(c1ccc(OC)cc1)(c1ccc(OC)c(C#N)c1)O2 (stereo not shown) [Compound 4]
32 | 1.5 | CCC(C)(CC)c1cc2ccccc2c2c1C=CC(c1ccc(OC)c(F)c1)(c1ccc(OC)c(F)c1)O2 [Compound 5]
33 | 1.9 | CC(C)(C)c1cc2ccccc2c2c1C=CC(c1ccccc1)(c1cc3ccccc3s1)O2 (stereo not shown) [Compound 11]
34 | 1.5 | COc1ccc(C2(c3ccc(OC)cc3)C=Cc3c(C(C)C)cc4ccccc4c3O2)cc1 [Compound 13]
35 | 1.3 | COc1ccc(C2(c3ccc(OC)c(F)c3)C=Cc3c(C(C)C)cc4ccccc4c3O2)cc1F [Compound 14]

The remaining lines, values behind:

Row | Structure (SMILES) | Change in the coloring degree ΔYI
36 | CC(C)(C)c1cc2ccccc2c2c1C=CC1(O2)C2CCCC1CCC2 (stereo not shown) [Compound 2] | 1.5
37 | CC(C)(C)c1cc2ccccc2c2c1C=CC(c1ccccc1)(c1cccs1)O2 (stereo not shown) [Compound 6] | 1.8
38 | CC(C)c1cc2ccccc2c2c1C=CC(c1ccccc1)(c1ccc3ccccc3c1)O2 (stereo not shown) [Compound 7] | 1.7
39 | COc1ccc2c3c(c(C(C)Cc4ccccc4)cc2c1)C=CC(c1ccccc1)(c1cccn1C)O3 (stereo not shown) [Compound 8] | 2.0
40 | CC(C)c1cc2cc(O)ccc2c2c1C=CC(c1cccs1)(c1cccs1)O2 [Compound 9] | 2.2
41 | CC(=O)Oc1ccc2c3c(c(C(C)C)cc2c1)C=CC(c1ccc(C)cc1)(c1ccc(C)cc1)O3 [Compound 10] | 1.5
42 | CC(C)c1cc2ccccc2c2c1C=CC(c1ccccc1)(c1ccccc1)O2 [Compound 12] | 1.0

same assay, conditions: single chromene compound in polymer, 10 days aging; Table 5

Row | Light resistance (durability) | Structure (SMILES)
43 | 99% | CC(C)(C)c1cc2ccccc2c2c1C=CC(c1ccccc1)(c1ccccc1)O2 [Compound 1]
44 | 95% | CCC(C)(C)c1cc2ccccc2c2c1C=CC(c1ccc(OC)cc1)(c1ccco1)O2 (stereo not shown) [Compound 3]
45 | 80% | CCC(C)c1cc2ccccc2c2c1C=CC(c1ccc(OC)cc1)(c1ccc(OC)c(C#N)c1)O2 (stereo not shown) [Compound 4]
46 | 99% | CCC(C)(CC)c1cc2ccccc2c2c1C=CC(c1ccc(OC)c(F)c1)(c1ccc(OC)c(F)c1)O2 [Compound 5]
47 | 97% | CC(C)(C)c1cc2ccccc2c2c1C=CC(c1ccccc1)(c1cc3ccccc3s1)O2 (stereo not shown) [Compound 11]
48 | 97% | COc1ccc(C2(c3ccc(OC)cc3)C=Cc3c(C(C)C)cc4ccccc4c3O2)cc1 [Compound 13]
49 | 99% | COc1ccc(C2(c3ccc(OC)c(F)c3)C=Cc3c(C(C)C)cc4ccccc4c3O2)cc1F [Compound 14]

Continued, compound first:

Row | Structure (SMILES) | Light resistance (durability)
50 | CC(C)(C)c1cc2ccccc2c2c1C=CC1(O2)C2CCCC1CCC2 (stereo not shown) [Compound 2] | 96%
51 | CC(C)(C)c1cc2ccccc2c2c1C=CC(c1ccccc1)(c1cccs1)O2 (stereo not shown) [Compound 6] | 97%
52 | CC(C)c1cc2ccccc2c2c1C=CC(c1ccccc1)(c1ccc3ccccc3c1)O2 (stereo not shown) [Compound 7] | 96%
53 | COc1ccc2c3c(c(C(C)Cc4ccccc4)cc2c1)C=CC(c1ccccc1)(c1cccn1C)O3 (stereo not shown) [Compound 8] | 92%
54 | CC(C)c1cc2cc(O)ccc2c2c1C=CC(c1cccs1)(c1cccs1)O2 [Compound 9] | 94%
55 | CC(=O)Oc1ccc2c3c(c(C(C)C)cc2c1)C=CC(c1ccc(C)cc1)(c1ccc(C)cc1)O3 [Compound 10] | 93%
56 | CC(C)c1cc2ccccc2c2c1C=CC(c1ccccc1)(c1ccccc1)O2 [Compound 12] | 99%
